Source: patent US12414565B2, “Pyridazine (THIO)amides as fungicidal compounds” (Bayer Aktiengesellschaft, priority 2018, dated 2025)

Tests used:
[1] = test system: Alternaria brassicae; assay: In vivo preventive test on Alternaria brassicae (leaf spot on radish or cabbage); conditions: 144 h, 500 ppm of active ingredient, preventive spray on radish or cabbage, evaluated 6 days after inoculation, 100% = no disease, read-out: efficacy
Method: (§1) The active ingredients were made soluble and homogenized in a mixture of Dimethyl sulfoxide/Acetone/Tween® 80 and then diluted in water to the desired concentration.
The young plants of radish or cabbage were treated by spraying the active ingredient prepared as described above. Control plants were treated only with an aqueous solution of Acetone/Dimethyl sulfoxide/Tween® 80.
After 24 hours, the plants were contaminated by spraying the leaves with an aqueous suspension of Alternaria brassicae spores. The contaminated radish or cabbage plants were incubated for 6 days at 20° C. and at 100% relative humidity.
The test was evaluated 6 days after the inoculation. 0% means an efficacy which corresponds to that of the control plants while an efficacy of 100% means that no disease was observed.

[2] = test system: Botrytis cinerea; assay: In vivo preventive test on Botrytis cinerea (grey mould); conditions: 500 ppm of active ingredient, preventive spray on gherkin or cabbage, evaluated 4 to 5 days after inoculation, 100% = no disease, read-out: efficacy
Method: as §1
The young plants of gherkin or cabbage were treated by spraying the active ingredient prepared as described above. Control plants were treated only with an aqueous solution of Acetone/Dimethyl sulfoxide/Tween® 80.
After 24 hours, the plants were contaminated by spraying the leaves with an aqueous suspension of Botrytis cinerea spores. The contaminated gherkin plants were incubated for 4 to 5 days at 17° C. and at 90% relative humidity. The contaminated cabbage plants were incubated for 4 to 5 days at 20° C. and at 100% relative humidity.
The test was evaluated 4 to 5 days after the inoculation. 0% means an efficacy which corresponds to that of the control plants while an efficacy of 100% means that no disease was observed.

[3] = test system: Pyrenophora teres; assay: In vivo preventive test on Pyrenophora teres (net blotch on barley); conditions: 240 h, 500 ppm of active ingredient, preventive spray on barley, evaluated 10 days after inoculation, 100% = no disease, read-out: efficacy
Method: as §1
The young plants of barley were treated by spraying the active ingredient prepared as described above. Control plants were treated only with an aqueous solution of Acetone/Dimethyl sulfoxide/Tween® 80.
After 24 hours, the plants were contaminated by spraying the leaves with an aqueous suspension of Pyrenophora teres spores. The contaminated barley plants were incubated for 48 hours at 20° C. and at 100% relative humidity and then for 8 days at 20° C. and at 70-80% relative humidity.
The test was evaluated 10 days after the inoculation. 0% means an efficacy which corresponds to that of the control plants while an efficacy of 100% means that no disease was observed.

[4] = test system: Sphaerotheca fuliginea; assay: In vivo preventive test on Sphaerotheca fuliginea (powdery mildew on cucurbits); conditions: Podosphaera fuliginea, 192 h; 500 ppm of active ingredient; preventive spray on gherkin; evaluated 8 days after inoculation; 100% = no disease; read-out: efficacy
Method: as §1
The young plants of gherkin were treated by spraying the active ingredient prepared as described above. Control plants were treated only with an aqueous solution of Acetone/Dimethyl sulfoxide/Tween® 80.
After 24 hours, the plants were contaminated by spraying the leaves with an aqueous suspension of Sphaerotheca fuliginea spores. The contaminated gherkin plants were incubated for 8 days at 20° C. and at 70-80% relative humidity.
The test was evaluated 8 days after the inoculation. 0% means an efficacy which corresponds to that of the control plants while an efficacy of 100% means that no disease was observed.

[5] = test system: Alternaria alternata; assay: Alternaria alternata in vitro cell test; type: cell-based; conditions: 120 h, 20 ppm of active ingredient, liquid culture, 5 days incubation, absorbance, read-out: efficacy (inhibition of fungal growth)
Method: (§2) [table] Fungicides were solubilized in DMSO and the solution used to prepare the required range of concentrations. The final concentration of DMSO used in the assay was <1%. A spore suspension of A. alternata was prepared and diluted to the desired spore density. Fungicides were evaluated for their ability to inhibit spore germination and mycelium growth in liquid culture assay. The compounds were added in the desired concentration to the culture medium with spores. After 5 days incubation, fungi-toxicity of compounds was determined by spectrometric measurement of mycelium growth. Inhibition of fungal growth was determined by comparing the absorbance values in wells containing the fungicides with the absorbance in control wells without fungicides.

[6] = test system: Septoria tritici; assay: Septoria tritici in vitro cell test; type: cell-based; conditions: Zymoseptoria tritici, 168 h; 20 ppm of active ingredient; liquid culture, 7 days incubation, absorbance; read-out: efficacy (inhibition of fungal growth)
Method: as §2, with “≤1%.” for “<1%.”, “S. tritici” for “A. alternata”, “7” for “5”

[7] = test system: Colletotrichum lindemuthianum; assay: Colletotrichum lindemuthianum in vitro cell test; type: cell-based; conditions: 144 h, 20 ppm of active ingredient, liquid culture, 6 days incubation, absorbance, read-out: efficacy (inhibition of fungal growth)
Method: as §2, with “was ≤1%.” for “was <1%.”, “of C. lindemuthianum” for “of A. alternata”, “inhibit spores” for “inhibit spore”, “After 6” for “After 5”

SMILES: COCCc1c(Cl)nnc(Oc2cccc(C(F)(F)F)c2)c1C(=O)NCC(F)(F)c1ccc(Br)cc1Cl [I-070, N-[2-(4-bromo-2-chloro-phenyl)-2,2-difluoro-ethyl]-6-chloro-5-(2-methoxyethyl)-3-[3-(trifluoromethyl)phenoxy]pyridazine-4-carboxamide]
- pest or weed control at 500 ppm [1]: 90 to 100%
- pest or weed control at 500 ppm [2]: 90 to 100%
- pest or weed control at 500 ppm [3]: 90 to 100%
- pest or weed control at 500 ppm [4]: 90 to 100%
- inhibition at 20 ppm [5]: 90 to 100%
- inhibition at 20 ppm [6]: 90 to 100%
- inhibition at 20 ppm [7]: 90 to 100%

SMILES: Cc1ccc(C(F)(F)CNC(=O)c2c(Oc3cccc(C(F)(F)F)c3)nnc(Cl)c2-c2cccnc2)c(C)c1 [I-550, 6-chloro-N-[2-(2,4-dimethylphenyl)-2,2-difluoro-ethyl]-5-(3-pyridyl)-3-[3-(trifluoromethyl)phenoxy]pyridazine-4-carboxamide]
- pest or weed control at 500 ppm [1]: 90 to 100%
- pest or weed control at 500 ppm [2]: 90 to 100%
- pest or weed control at 500 ppm [4]: 90 to 100%
- inhibition at 20 ppm [5]: 90 to 100%
- inhibition at 20 ppm [6]: 90 to 100%
- inhibition at 20 ppm [7]: 90 to 100%

SMILES: Cc1ccc(C(F)(F)CNC(=O)c2c(Oc3cccc(Cl)c3)nnc(Cl)c2C)c(C)c1 [I-790, 6-chloro-3-(3-chlorophenoxy)-N-[2-(2,4-dimethylphenyl)-2,2-difluoro-ethyl]-5-methyl-pyridazine-4-carboxamide]
- pest or weed control at 500 ppm [1]: 90 to 100%
- pest or weed control at 500 ppm [2]: 90 to 100%
- pest or weed control at 500 ppm [4]: 90 to 100%
- inhibition at 20 ppm [5]: 90 to 100%
- inhibition at 20 ppm [6]: 70 to 79%
- inhibition at 20 ppm [7]: 90 to 100%
